Experimental data from patent US20110166112A1, “METHOD FOR STIMULATING PLATELET PRODUCTION” (Eisai, Inc., priority 2009, published 2011).

System: subjects with chronic ITP who completed 28 days of study treatment
Assay: Phase 2 6-month rollover study of E5501: effectiveness (durable, transient, overall platelet response, maintenance, steroid use, upward dose titration)
Format: in vivo, human
Conditions: for Decreased use of concomitant steroid medication by ≧50%, No / Decreased use of concomitant steroid medication by ≧50%, Yes / Permanently discontinued steroid use, No / Permanently discontinued steroid use, Yes: 6-month rollover, FAS subjects taking steroids at baseline; for subjects who required upward dose titration / durable response rate: 6-month treatment period; for Transient Platelet Response No, %: 'no' includes durable responders
Protocol: This study was a multicenter, parallel-group, rollover study of E5501 in subjects with chronic ITP who were enrolled in and completed 28 days' of study treatment. All subjects who completed the previous study and otherwise met the eligibility criteria for this rollover protocol were enrolled.
Subjects who rolled over from the previous study were treated for an additional 6 months after completing previous study.
Initial dose: Subjects who met the efficacy response in the previous study continued to receive their previous blinded dose at entry into this study.
Dose titration was performed in an open label fashion in 10 mg increments as follows: • Nonresponders, who received initial doses of open-label E5501 10 mg in the previous study, could have their dose increased in 10 mg increments every 14 days to a maximum of 40 mg/day in the absence of platelet response.
Subjects were also permitted to reduce their dose of ITP-directed concomitant therapy (e.g., steroids). The overall goal of any dose modification was to maintain the subject's peripheral platelet count above 50,000/mm^3 and to decrease the need for ITP-directed concomitant medications (if applicable). During any dose modification of study drug or ITP-directed concomitant medications, platelet counts were collected every week. After platelet counts stabilized, platelet count collection reverted to a biweekly schedule.
Assessments: Study subjects were evaluated for safety and efficacy (including platelet count) on day 1 and then biweekly while receiving treatment.
Two primary analysis populations were used to summarize safety and effectiveness: • Safety population: all subjects who received at least 1 dose of study drug and had at least 1 post-treatment safety assessment in either the previous or this study. All safety analyses were performed using this population. • Full Analysis Set (FAS): all subjects who participated in both studies and who had at least one post-treatment effectiveness assessment in this study. All efficacy analyses were performed using this population.
Secondary Endpoints: The secondary endpoints were markers of effectiveness, including: • 1. Changes in platelet count from baselines of the previous study and of this study by study visit; and • 2. Durable platelet response, defined as subjects who had at least 3 platelet count assessments in the last 14 weeks of the 24-week treatment period, and whose platelet count was at a response level for at least 75% of the time in the last 14 weeks during the 24-week treatment period, with no rescue medication used during the 24-week treatment period. Platelet response level was defined as ≧50,000/mm^3 for subjects whose baseline platelet count was <30,000/mm^3 in the previous study or an increase in baseline platelet count of ≧20,000/mm^3 for subjects receiving steroids whose baseline platelet count in the previous study was ≧30,000/mm^3 but <50,000/mm^3; • 3. Transient platelet response, defined as achievement of a response level for any 4 consecutive weeks during the 24-week treatment period without durable platelet response in the absence of any rescue medication; • 4. Overall platelet response (durable platelet response plus transient platelet response); • 5. Maintenance of platelet response, defined as subjects who were responders in the previous study (e.g., responders on day 28 of the previous study) who achieved a durable response in this study and had no upward dose titration of E5501 during this study; • 6. Permanent discontinuation of steroid use, defined as subjects who used steroid medication within the 2-week period before their first dose of study drug in this study, and for whom concomitant steroid medication was discontinued at least 8 weeks before the end of the treatment period; • 7. Reduction of steroid use by at least 50%. […]

[1] = FAS, 501-CL-003 Nonresponders (N = 28)
[2] = FAS, 501-CL-003 Responders (N = 25)
[3] = FAS, <3 Lines of Prior Therapy, E5501 Total, N assessed 18
[4] = FAS, <3 Lines of Prior Therapy, Non-Responders, N assessed 6
[5] = FAS, <3 Lines of Prior Therapy, Responders, N assessed 12
[6] = FAS, Baseline PC >15K/mm^3, E5501 Total, N assessed 38
[7] = FAS, Baseline PC >15K/mm^3, Non-Responders, N assessed 19

SMILES: O=C(Nc1nc(-c2cc(Cl)cs2)c(N2CCN(C3CCCCC3)CC2)s1)c1cnc(N2CCC(C(=O)O)CC2)c(Cl)c1 [E5501, 1-(3-chloro-5-{[4-(4-chlorothiophen-2-yl)-5-(4-cyclohexylpiperazin-1-yl)thiazol-2-yl]carbamoyl}pyridine-2-yl)piperidine-4-carboxylic acid]
- Decreased use of concomitant steroid medication by ≧50%, No (E5501 Total): 11 (45.8) n (%)
- Decreased use of concomitant steroid medication by ≧50%, Yes (E5501 Total): 13 (54.2) n (%)
- Permanently discontinued steroid use, No (E5501 Total): 16 (66.7) n (%)
- Permanently discontinued steroid use, Yes (E5501 Total): 8 (33.3) n (%)
- Decreased use of concomitant steroid medication by ≧50%, No (Nonresponders): 6 (50.0) n (%)
- Decreased use of concomitant steroid medication by ≧50%, Yes (Nonresponders): 6 (50.0) n (%)
- Permanently discontinued steroid use, No (Nonresponders): 8 (66.7) n (%)
- Permanently discontinued steroid use, Yes (Nonresponders): 4 (33.3) n (%)
- Decreased use of concomitant steroid medication by ≧50%, No (Responders): 5 (41.7) n (%)
- Decreased use of concomitant steroid medication by ≧50%, Yes (Responders): 7 (58.3) n (%)
- Permanently discontinued steroid use, No (Responders): 8 (66.7) n (%)
- Permanently discontinued steroid use, Yes (Responders): 4 (33.3) n (%)
- subjects who required upward dose titration (25 responders): 20%
- subjects who required upward dose titration (28 non-responders): 75%
- durable response rate (FAS, all subjects): 52.8%
- durable response rate (FAS, non-responders in previous study): 35.7%
- durable response rate (FAS, responders in previous study): 72.0%
- subjects who achieved an overall platelet response after the titration (13 subjects who required and did receive a dose titration): 76.9%
- median platelet counts maintained throughout the study (FAS): above 50,000 /mm^3
- Upward titration required and implemented, % of subjects (FAS, 501-CL-003 Nonresponders): (47.6) %
- Upward titration required and implemented, n of subjects (FAS, 501-CL-003 Nonresponders): 10/21
- Upward titration required and implemented; subject achieved overall response, % of subjects (FAS, 501-CL-003 Nonresponders): (70.0) %
- Upward titration required and implemented; subject achieved overall response, n of subjects (FAS, 501-CL-003 Nonresponders): 7/10
- Upward titration required, % of subjects [1]: (75.0) %
- Upward titration required, n of subjects [1]: 21
- Upward titration required and implemented, % of subjects (FAS, 501-CL-003 Responders): (60.0) %
- Upward titration required and implemented, n of subjects (FAS, 501-CL-003 Responders): 3/5
- Upward titration required and implemented; subject achieved overall response, % of subjects (FAS, 501-CL-003 Responders): (100.0) %
- Upward titration required and implemented; subject achieved overall response, n of subjects (FAS, 501-CL-003 Responders): 3/3
- Upward titration required, % of subjects [2]: (20.0) %
- Upward titration required, n of subjects [2]: 5
- Durable Platelet Response No, % (FAS, E5501 Total (N=53)): (47.2) %
- Durable Platelet Response Yes, % (FAS, E5501 Total (N=53)): (52.8) %
- Transient Platelet Response Yes, % (FAS, E5501 Total (N=53)): (22.6) %
- With Overall Response No, % (FAS, E5501 Total (N=53)): (24.5) %
- With Overall Response Yes, % (FAS, E5501 Total (N=53)): (75.5) %
- Transient Platelet Response No, % (FAS, E5501 Total (N=53)): (77.4) %
- Durable Platelet Response No, % (FAS, Non-Responders (N=28)): (64.3) %
- Durable Platelet Response Yes, % (FAS, Non-Responders (N=28)): (35.7) %
- Transient Platelet Response Yes, % (FAS, Non-Responders (N=28)): (28.6) %
- With Overall Response No, % (FAS, Non-Responders (N=28)): (35.7) %
- With Overall Response Yes, % (FAS, Non-Responders (N=28)): (64.3) %
- Transient Platelet Response No, % (FAS, Non-Responders (N=28)): (71.4) %
- Durable Platelet Response No, % (FAS, Responders (N=25)): (28.0) %
- Durable Platelet Response Yes, % (FAS, Responders (N=25)): (72.0) %
- Transient Platelet Response Yes, % (FAS, Responders (N=25)): (16.0) %
- With Overall Response No, % (FAS, Responders (N=25)): (12.0) %
- With Overall Response Yes, % (FAS, Responders (N=25)): (88.0) %
- Transient Platelet Response No, % (FAS, Responders (N=25)): (84.0) %
- Upward titration required and implemented, % of subjects (FAS, Total): (50.0) %
- Upward titration required and implemented, n of subjects (FAS, Total): 13/26
- Upward titration required and implemented; subject achieved overall response, % of subjects (FAS, Total): (76.9) %
- Upward titration required and implemented; subject achieved overall response, n of subjects (FAS, Total): 10/13
- Upward titration required, % of subjects (FAS, Total (N = 53)): (49.0) %
- Upward titration required, n of subjects (FAS, Total (N = 53)): 26
- Durable Platelet Response, n (%) with response [3]: 12 (66.7) n (%)
- Overall Platelet Response, n (%) with response [3]: 15 (83.3) n (%)
- Durable Platelet Response, n (%) with response [4]: 3 (50.0) n (%)
- Overall Platelet Response, n (%) with response [4]: 4 (66.7) n (%)
- Durable Platelet Response, n (%) with response [5]: 9 (75.0) n (%)
- Overall Platelet Response, n (%) with response [5]: 11 (91.7) n (%)
- Durable Platelet Response, n (%) with response [6]: 24 (63.2) n (%)
- Overall Platelet Response, n (%) with response [6]: 33 (86.8) n (%)
- Durable Platelet Response, n (%) with response [7]: 9 (47.4) n (%)
- Overall Platelet Response, n (%) with response [7]: 15 (78.9) n (%)
